This series is described as follows: In vitro drug-drug interaction studies of sartan and statin in dissolution media by UV/Visible spectrophotometry. It is filed as physicochemical. As to conditions: SGM and pH 4, 7.4, 9, 37° C., 2 hours; for interaction of losartan and atorvastatin (FIG. 7): LOS + ATR added together at 0 min; for interaction of valsartan and atorvastatin (FIG. 10): VAL + ATR added together at 0 min. The procedure: Interaction studies by UV/Visible spectrophotometry. In vitro interaction studies of antihypertensive drugs and antilipidemic agents were studied individually by using different kinds of dissolution media: SGM and media at pH 4, 7.4 and 9 as described in the experimental section.
In each set of experiments losartan or valsartan was initially added at 0 min to 500 mL dissolution medium SGM or media at pH 4, 7.4 and 9 already maintained at 37° C. The second drug, statin (ATOR, PRA or SIM) was added at the same time at zero mins. 5 mL samples were collected at regular intervals for 2 hours. The drug contents (losartan in presence of respective interacting drug, and valsartan in presence of respective interacting drug) were quantified spectrophotometrically at their respective λmax by employing simultaneous equations; FIGS. 7-12.
In FIG. 7, the drug contents (losartan in presence of respective interacting drug) were quantified spectrophotometrically at their respective λmax by employing simultaneous equations, that is, by using the molar absorptive value of the drug at a particular wavelength and a particular pH.
As the spectra of the two interacting drugs fused with each other, simultaneous methods were developed to determine losartan/valsartan and drugs of interacting classes along with each other. This technique enables one to quantitate the content of the two drugs co-existing in the same medium, without needing to separate them. To achieve this, molar absorptivity values of both losartan and the respective interacting drug were calculated at λmax of their own and at the λmax of each other using their calibration curves standards in all four pH medium.

For `CC(C)c1c(C(=O)Nc2ccccc2)c(-c2ccccc2)c(-c2ccc(F)cc2)n1CC[C@@H](O)C[C@@H](O)CC(=O)O` [ATR, Atorvastatin], the “interaction of losartan and atorvastatin (FIG. 7)” value was “have undergone interaction”; the “interaction of valsartan and atorvastatin (FIG. 10)” value is given as “may interact in the digestive tract”.
With `CCCCc1nc(Cl)c(CO)n1Cc1ccc(-c2ccccc2-c2nn[nH]n2)cc1` [LOS, Losartan], the “interaction of losartan and atorvastatin (FIG. 7)” value was “have undergone interaction”. Besides, the “interaction of losartan and pravastatin (FIG. 8)” value (LOS + PRA added together at 0 min) is “may interact in the digestive tract”. In addition, the “interaction of losartan and simvastatin (FIG. 9)” value (LOS + SIM added together at 0 min) is recorded as “NOT available in their original form”.
With `CCCCC(=O)N(Cc1ccc(-c2ccccc2-c2nnn[nH]2)cc1)[C@H](C(=O)O)C(C)C` [VAL, Valsartan], the “interaction of valsartan and atorvastatin (FIG. 10)” value is recorded as “may interact in the digestive tract”. Further, the “interaction of valsartan and pravastatin (FIG. 11)” value (VAL + PRA added together at 0 min) was “may interact in the digestive tract”. In addition, the “interaction of valsartan and simvastatin (FIG. 12)” value (VAL + SIM added together at 0 min) is recorded as “may interact in the digestive tract”.

The values above are taken from patent publication US11221321B2, “Liquid chromatographic method for the simultaneous analysis of antihypertensive and antilipidemic agents and interactions thereof” (Imam Abdulrahman Bin Faisal University, priority 2019, dated 2022).
